This note sets out measurements from US9937235B2, “Lipidated peptides as anti-obesity agents” (USTAV ORGANICKE CHEMIE A BIOCHEMIE AKADEMIE VED CR, V.V.I, priority 2012, dated 2018).

Where a SMILES comes first, the peptide text is derived from it. Where no end group is shown, it is not given here. [ ]: non-standard residue; d: D form. The star is where a group is joined. Phe(F5) = N[C@@H](Cc1c(F)c(F)c(F)c(F)c1F)C(=O)O; Palmitoyl = CCCCCCCCCCCCCCCC(=O)*; Myristoyl = CCCCCCCCCCCCCC(=O)*; Lauroyl = CCCCCCCCCCCC(=O)*; Decanoyl = CCCCCCCCCC(=O)*; Nle = CCCC[C@H](N)C(=O)O; Dap = NC[C@H](N)C(=O)O

Assay [1] concerns the target T1, rat PrRP receptor (GPR10) in RC-4B/C cells (Rattus norvegicus, UniProt Q64121).
T1 construct: host or cells: RC-4B/C rat pituitary cell line
T1 sequence (Q64121 1-370): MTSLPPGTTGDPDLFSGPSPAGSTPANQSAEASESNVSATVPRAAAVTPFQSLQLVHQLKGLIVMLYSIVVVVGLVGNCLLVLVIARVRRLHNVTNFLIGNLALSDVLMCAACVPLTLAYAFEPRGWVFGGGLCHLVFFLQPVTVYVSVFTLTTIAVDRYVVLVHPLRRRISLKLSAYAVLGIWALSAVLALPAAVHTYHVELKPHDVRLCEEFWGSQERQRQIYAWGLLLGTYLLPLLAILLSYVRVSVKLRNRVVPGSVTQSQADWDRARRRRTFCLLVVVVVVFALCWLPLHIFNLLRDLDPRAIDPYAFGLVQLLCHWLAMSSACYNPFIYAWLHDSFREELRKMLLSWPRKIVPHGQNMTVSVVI
Put plainly: Competitive binding to rat pituitary RC-4B/C cells. The following applies: rat RC-4B/C cells, Table 5; read-out: C-4B/C cells ^25I-rat PrRP31 Ki.

Assay [2] concerns the target T2, human PrRP receptor, GPR10 (Homo sapiens, UniProt P49683).
T2 construct: host or cells: CHO cells
T2 sequence (P49683 1-370): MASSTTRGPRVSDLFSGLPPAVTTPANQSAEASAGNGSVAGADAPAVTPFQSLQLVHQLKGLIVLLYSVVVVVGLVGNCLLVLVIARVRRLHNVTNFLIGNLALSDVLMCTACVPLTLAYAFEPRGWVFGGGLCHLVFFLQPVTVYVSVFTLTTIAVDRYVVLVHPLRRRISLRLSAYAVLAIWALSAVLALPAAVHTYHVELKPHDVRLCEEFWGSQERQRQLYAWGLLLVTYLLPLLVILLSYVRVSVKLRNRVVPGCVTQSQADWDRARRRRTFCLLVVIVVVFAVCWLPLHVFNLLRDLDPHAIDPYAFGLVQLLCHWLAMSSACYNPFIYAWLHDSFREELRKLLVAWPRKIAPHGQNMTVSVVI
Put plainly: Competitive binding to CHO cells with transfected human GPR10. The following applies: CHO cells with transfected human GPR10, human ^125I—PrRP31. Here is the method:
Competitive binding experiments were performed according to Motulsky and Neubig (Motulsky, A., et al., “Analyzing radioligand binding data,” Curr Protoc Neurosci, Chapter 7, Unit 7.5, 2002).
CHO cells with transfected human PrRP receptor, GPR10 (Perkin Elmer, USA) were grown on 24-well plates coated with polyethyleneimine. The cells were grown to the optimal density of 40-80 thousand cells per well. The following agents were used for the experiment: binding buffer (25 mmol·l^−1 Tris, pH 7.4; 118 mmol·l^−1 NaCl, 10 mmol·l^−1 MgCl2, 1 mmol·l^−1 CaCl2, 5.5 mmol·l^−1 glucose, 0.5 mg/ml BSA), unlabelled analogs of PrRP of final concentration within 10^−11 to 10^−4 mol·l^−1, and human ^125I—PrRP31 of final concentration of 5×10^−11 mol·l^−1.
(§1) Plates were incubated for 60 minutes at room temperature. After incubation, the cells were solubilized in 0.1 mol/l solution of NaOH and the radioactivity bound to the cells was counted using a γ-counter. The experiments were performed in duplicate and repeated at least three times.
For evaluation of competitive binding experiments, the program Graph Pad Prism Software (San Diego, Calif., USA) was used. A method of nonlinear regression assuming one-site binding was used.

A further assay relates to fasted C57BL/6 mice. Put plainly: Food intake in fasted mice after SC administration. In kind it is in vivo, mouse. The following applies: fasted C57BL/6 mice, 5 mg/kg SC, 45 min. In short, it runs like this:
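Male C57BL/6 mice, food-deprived 17 h, received saline, PrRP or lipidated analogs either SC at 1-10 mg/kg or ICV into the third ventricle at 4 nmol/mouse.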

For assay [3], the target named is T3, rat PrRP receptor in RC-4B/C cells (rat, UniProt Q64121 1-370).
T3 construct: whole, on cells; also called the rat receptor; GPR10
T3 sequence (looked up): T1 sequence (Q64121 1-370)
Put plainly: competition with 125I-rat PrRP31 on RC-4B/C cells; Ki by Cheng-Prusoff. Here is the method: The rat pituitary cell line RC-4B/C (ATCC, Manassas, USA) was grown on 24-well plates which had their bottom coated with polyethyleneimine. The cells were grown to the optimal density of 300-450 thousand per well.
as §1

In assay [4] the target is T3, rat PrRP receptor in RC-4B/C cells. Put plainly: competition with 125I-rat PrRP31 on RC-4B/C cells.
Assay [5] shares this target. Put plainly: competition with 125I-human PrRP31 on RC-4B/C cells; Ki by Cheng-Prusoff.

With `CCCCCCCCCCCCCCCC(=O)N[C@@H](CO)C(=O)N[C@@H](CCCNC(=N)N)C(=O)N[C@@H](C)C(=O)N[C@@H](Cc1c[nH]cn1)C(=O)N[C@@H](CCC(N)=O)C(=O)N[C@@H](Cc1c[nH]cn1)C(=O)N[C@@H](CO)C(=O)N[C@@H](CCCC)C(=O)N[C@@H](CCC(=O)O)C(=O)N[C@H](C(=O)N[C@@H](CCCNC(=N)N)C(=O)N[C@H](C(=O)N1CCC[C@H]1C(=O)N[C@@H](CC(=O)O)C(=O)N[C@H](C(=O)N[C@@H](CC(N)=O)C(=O)N1CCC[C@H]1C(=O)N[C@@H](C)C(=O)N[C@@H](Cc1c[nH]c2ccccc12)C(=O)N[C@@H](Cc1ccc(O)cc1)C(=O)N[C@H](C(=O)NCC(=O)N[C@@H](CCCNC(=N)N)C(=O)NCC(=O)N[C@H](C(=O)N[C@@H](CCCNC(=N)N)C(=O)N1CCC[C@H]1C(=O)N[C@H](C(=O)NCC(=O)N[C@@H](CCCNC(=N)N)C(=O)N[C@@H](Cc1c(F)c(F)c(F)c(F)c1F)C(N)=O)C(C)C)[C@@H](C)CC)[C@@H](C)O)[C@@H](C)CC)[C@@H](C)O)[C@@H](C)O` [Analog 33] (Palmitoyl-SRAHQHS[Nle]ETRTPDINPAWYTGRGIRPVGR[Phe(F5)]-NH2), the Ki worked out at 0.51 ± 0.08 nM in assay [1] and 1.92 ± 0.53 nM in assay [2]. Moreover, the “Food intake in mice (5 mg/kg SC) % saline-treated group (45 min)” value in the assay with fasted C57BL/6 mice came out at 41%.

Turning to `CCCC[C@H](NC(=O)[C@H](CO)NC(=O)[C@H](Cc1c[nH]cn1)NC(=O)[C@H](CCC(N)=O)NC(=O)[C@H](Cc1c[nH]cn1)NC(=O)[C@H](C)NC(=O)[C@H](CCCNC(=N)N)NC(=O)[C@@H](N)CO)C(=O)N[C@@H](CCC(=O)O)C(=O)N[C@H](C(=O)N[C@@H](CCCNC(=N)N)C(=O)N[C@H](C(=O)N1CCC[C@H]1C(=O)N[C@@H](CC(=O)O)C(=O)N[C@H](C(=O)N[C@@H](CC(N)=O)C(=O)N1CCC[C@H]1C(=O)N[C@@H](C)C(=O)N[C@@H](Cc1c[nH]c2ccccc12)C(=O)N[C@@H](Cc1ccc(O)cc1)C(=O)N[C@H](C(=O)NCC(=O)N[C@@H](CCCNC(=N)N)C(=O)NCC(=O)N[C@H](C(=O)N[C@@H](CCCNC(=N)N)C(=O)N1CCC[C@H]1C(=O)N[C@H](C(=O)NCC(=O)N[C@@H](CCCNC(=N)N)C(=O)N[C@@H](Cc1ccccc1)C(N)=O)C(C)C)[C@@H](C)CC)[C@@H](C)O)[C@@H](C)CC)[C@@H](C)O)[C@@H](C)O` [Analog 14] (H-SRAHQHS[Nle]ETRTPDINPAWYTGRGIRPVGRF-NH2), the Ki in assay [2] amounted to 1.92 ± 0.43 nM. In the assay on fasted C57BL/6 mice, the “Food intake in mice (5 mg/kg SC) % saline-treated group (45 min)” value turned out to be 100%.

The molecule `CCCCCCCCCCCC(=O)N[C@H](C(=O)N1CCC[C@H]1C(=O)N[C@@H](CC(=O)O)C(=O)N[C@H](C(=O)N[C@@H](CC(N)=O)C(=O)N1CCC[C@H]1C(=O)N[C@@H](C)C(=O)N[C@@H](Cc1c[nH]c2ccccc12)C(=O)N[C@@H](Cc1ccc(O)cc1)C(=O)N[C@@H](C)C(=O)N[C@@H](CO)C(=O)N[C@@H](CCCNC(=N)N)C(=O)NCC(=O)N[C@H](C(=O)N[C@@H](CCCNC(=N)N)C(=O)N1CCC[C@H]1C(=O)N[C@H](C(=O)NCC(=O)N[C@@H](CCCNC(=N)N)C(=O)N[C@@H](Cc1ccccc1)C(N)=O)C(C)C)[C@@H](C)CC)[C@@H](C)CC)[C@@H](C)O` [Analog 54] (Lauroyl-TPDINPAWYASRGIRPVGRF-NH2) yielded a Ki in assay [2] of 2.41 ± 0.26 nM. In the assay on fasted C57BL/6 mice, the “Food intake in mice (5 mg/kg SC) % saline-treated group (45 min)” value is given as 85%.

For the molecule `CCCCCCCCCC(=O)N[C@H](C(=O)N1CCC[C@H]1C(=O)N[C@@H](CC(=O)O)C(=O)N[C@H](C(=O)N[C@@H](CC(N)=O)C(=O)N1CCC[C@H]1C(=O)N[C@@H](C)C(=O)N[C@@H](Cc1c[nH]c2ccccc12)C(=O)N[C@@H](Cc1ccc(O)cc1)C(=O)N[C@@H](C)C(=O)N[C@@H](CO)C(=O)N[C@@H](CCCNC(=N)N)C(=O)NCC(=O)N[C@H](C(=O)N[C@@H](CCCNC(=N)N)C(=O)N1CCC[C@H]1C(=O)N[C@H](C(=O)NCC(=O)N[C@@H](CCCNC(=N)N)C(=O)N[C@@H](Cc1ccccc1)C(N)=O)C(C)C)[C@@H](C)CC)[C@@H](C)CC)[C@@H](C)O` [Analog 53] (Decanoyl-TPDINPAWYASRGIRPVGRF-NH2), the Ki in assay [2] was 2.41 ± 0.26 nM. Also, in the assay on fasted C57BL/6 mice, the “Food intake in mice (5 mg/kg SC) % saline-treated group (45 min)” value is 100%.

B1: analog no. 12 (peptide)
peptide: [Dap](Myristoyl)RTHRHS[Nle]EIRTPDINPAWYASRGIRPVGRF-NH2
modifications: N-terminus assumed
SMILES: CCCCCCCCCCCCCC(=O)NC[C@H](N)C(=O)N[C@@H](CCCNC(=N)N)C(=O)N[C@H](C(=O)N[C@@H](Cc1c[nH]cn1)C(=O)N[C@@H](CCCNC(=N)N)C(=O)N[C@@H](Cc1c[nH]cn1)C(=O)N[C@@H](CO)C(=O)N[C@@H](CCCC)C(=O)N[C@@H](CCC(=O)O)C(=O)N[C@H](C(=O)N[C@@H](CCCNC(=N)N)C(=O)N[C@H](C(=O)N1CCC[C@H]1C(=O)N[C@@H](CC(=O)O)C(=O)N[C@H](C(=O)N[C@@H](CC(N)=O)C(=O)N1CCC[C@H]1C(=O)N[C@@H](C)C(=O)N[C@@H](Cc1c[nH]c2ccccc12)C(=O)N[C@@H](Cc1ccc(O)cc1)C(=O)N[C@@H](C)C(=O)N[C@@H](CO)C(=O)N[C@@H](CCCNC(=N)N)C(=O)NCC(=O)N[C@H](C(=O)N[C@@H](CCCNC(=N)N)C(=O)N1CCC[C@H]1C(=O)N[C@H](C(=O)NCC(=O)N[C@@H](CCCNC(=N)N)C(=O)N[C@@H](Cc1ccccc1)C(N)=O)C(C)C)[C@@H](C)CC)[C@@H](C)CC)[C@@H](C)O)[C@@H](C)CC)[C@@H](C)O
notes: analog of human PrRP31
As for B1, in assay [3], the Ki turned out to be 4.13 nM.

For SRTHRHSMEIRTPDINPAWYASRGIRPVGRF-NH2 (also called hPrRP31; analog no; 50) [Human PrRP31], the Ki in assay [4] worked out at 1.78 nM; in assay [3] it was 1.54 nM; in assay [5], 3.01 nM.

B2: analog no. 11 (peptide)
peptide: [Dap]RTHRHS[Nle]EIRTPDINPAWYASRGIRPVGRF-NH2
modifications: N-terminus assumed
SMILES: CCCC[C@H](NC(=O)[C@H](CO)NC(=O)[C@H](Cc1c[nH]cn1)NC(=O)[C@H](CCCNC(=N)N)NC(=O)[C@H](Cc1c[nH]cn1)NC(=O)[C@@H](NC(=O)[C@H](CCCNC(=N)N)NC(=O)[C@@H](N)CN)[C@@H](C)O)C(=O)N[C@@H](CCC(=O)O)C(=O)N[C@H](C(=O)N[C@@H](CCCNC(=N)N)C(=O)N[C@H](C(=O)N1CCC[C@H]1C(=O)N[C@@H](CC(=O)O)C(=O)N[C@H](C(=O)N[C@@H](CC(N)=O)C(=O)N1CCC[C@H]1C(=O)N[C@@H](C)C(=O)N[C@@H](Cc1c[nH]c2ccccc12)C(=O)N[C@@H](Cc1ccc(O)cc1)C(=O)N[C@@H](C)C(=O)N[C@@H](CO)C(=O)N[C@@H](CCCNC(=N)N)C(=O)NCC(=O)N[C@H](C(=O)N[C@@H](CCCNC(=N)N)C(=O)N1CCC[C@H]1C(=O)N[C@H](C(=O)NCC(=O)N[C@@H](CCCNC(=N)N)C(=O)N[C@@H](Cc1ccccc1)C(N)=O)C(C)C)[C@@H](C)CC)[C@@H](C)CC)[C@@H](C)O)[C@@H](C)CC
notes: analog of human PrRP31
For the molecule B2, the Ki in assay [3] was found to be 2.28 nM; in assay [5], 2 nM.
